Test results as given in ChEMBL document CHEMBL4138160, “Biphenylthiazole antibiotics with an oxadiazole linker: An approach to improve physicochemical properties and oral bioavailability” (Eur J Med Chem, 2018).
In brackets after ≈: the same amount, converted by molar mass. Activity calls are given as the source filed them. No cut-off for these calls is given here.

Experiments:
[1] = Aqueous solubility in PBS after 2 hrs; type: physicochemical; conditions: buffer
[2] = system: Staphylococcus aureus; test: Antibacterial activity against methicillin-resistant Staphylococcus aureus 2658 RCMB after 20 hrs by broth microdilution method; type: functional
[3] = system: Staphylococcus aureus; test: Antibacterial activity against methicillin-resistant Staphylococcus aureus USA300 NRS384 at sub MIC after 4 passages by broth microdilution method
[4] = system: Staphylococcus aureus; test: Antibacterial activity against methicillin-resistant Staphylococcus aureus USA300 NRS384 by broth microdilution method
[5] = system: Staphylococcus aureus; test: Antibacterial activity against methicillin-resistant Staphylococcus aureus USA300 NRS384 at sub MIC after 14 passages over 2 weeks by broth microdilution method; type: functional, organism-based
[6] = system: HRT-18 cell line; test: Cytotoxicity against human HRT18 cells assessed as decrease in cell viability up to 256 ug/ml after 2 hrs by MTS assay; type: cell-based; conditions: hrt-18, 2 h
[7] = system: BHK-21; test: Cytotoxicity against BHK21 cells assessed as decrease in cell viability after 24 hrs by MTT assay; type: cell-based; conditions: Mesocricetus auratus, BHK-21, 24 h
[8] = system: Staphylococcus aureus; test: Antibacterial activity against Staphylococcus aureus USA400 NRS123 clinical isolate after 20 hrs by broth microdilution method; type: functional; conditions: USA400 NRS123, 20 h
[9] = Ratio of Cmax in Sprague-Dawley rat at 25 mg/kg administered via oral gavage to MIC for methicillin-resistant Staphylococcus aureus 2658 RCMB; type: ADME, organism-based; conditions: in vivo
[10] = Half life in Sprague-Dawley rat at 25 mg/kg administered via oral gavage measured over 24 hrs by LC-MS/MS analysis; type: ADME, organism-based; conditions: in vivo
[11] = system: Enterococcus faecalis; test: Antibacterial activity against vancomycin-resistant Enterococcus faecalis ATCC 51299 after 20 hrs by broth microdilution method; type: functional; conditions: ATCC 51299, 20 h
[12] = system: Staphylococcus aureus; test: Antibacterial activity against Staphylococcus aureus VRS11a clinical isolate after 20 hrs by broth microdilution method; type: functional
[13] = system: Acinetobacter baumannii; test: Antibacterial activity against Acinetobacter baumannii ATCC 19606 after 20 hrs by broth microdilution method; type: functional; conditions: ATCC 19606 = CIP 70.34 = JCM 6841, 20 h
[14] = system: Staphylococcus aureus; test: Antibacterial activity against Staphylococcus aureus RN4220 NRS107 clinical isolate after 20 hrs by broth microdilution method; type: functional; conditions: RN4220 NRS107, 20 h
[15] = AUClast in Sprague-Dawley rat at 25 mg/kg administered via oral gavage measured over 24 hrs by LC-MS/MS analysis; type: ADME, organism-based; set-up: dose 25 mg/kg, route oral, time 0 - last; conditions: in vivo
[16] = system: Enterobacter cloacae; test: Antibacterial activity against Enterobacter cloacae BAA-1154 after 20 hrs by broth microdilution method; type: functional; conditions: BAA-1154, 20 h
[17] = system: BHK-21; test: Cytotoxicity against BHK21 cells assessed as decrease in cell viability after 6 hrs by MTT assay; type: cell-based; conditions: Mesocricetus auratus, BHK-21, 6 h
[18] = system: Staphylococcus aureus; test: Bactericidal activity against methicillin-resistant Staphylococcus aureus USA300 at 4 times MIC after 24 hrs by time kill assay; type: functional, organism-based
[19] = system: HRT-18 cell line; test: Cytotoxicity against human HRT18 cells assessed as decrease in cell viability at 512 ug/ml after 2 hrs by MTS assay; type: cell-based; conditions: hrt-18, 2 h
[20] = system: Staphylococcus aureus; test: Antibacterial activity against Staphylococcus aureus VRS12 clinical isolate after 20 hrs by broth microdilution method; type: functional; conditions: VRS12, 20 h
[21] = system: Pseudomonas aeruginosa; test: Antibacterial activity against Pseudomonas aeruginosa ATCC 15442 after 20 hrs by broth microdilution method; type: functional; conditions: ATCC 15442, 20 h
[22] = Ratio of non cytotoxic concentration against human HRT18 cells to MIC for methicillin-resistant Staphylococcus aureus 2658 RCMB; type: toxicity, cell-based
[23] = system: Rattus norvegicus; test: Tmax in Sprague-Dawley rat at 25 mg/kg administered via oral gavage measured over 24 hrs by LC-MS/MS analysis; type: ADME, organism-based; conditions: in vivo
[24] = system: Staphylococcus aureus; test: Potency index, ratio of vancomycin MIC to test compound MIC for Staphylococcus aureus VRS12 clinical isolate; type: functional
[25] = system: Staphylococcus aureus; test: Antibacterial activity against Staphylococcus aureus VRS10 clinical isolate after 20 hrs by broth microdilution method; type: functional; conditions: VRS10, 20 h
[26] = system: Enterococcus faecium; test: Antibacterial activity against vancomycin-resistant Enterococcus faecium ATCC 700221 after 20 hrs by broth microdilution method; type: functional; conditions: ATCC 700221, 20 h
[27] = system: Klebsiella pneumoniae; test: Antibacterial activity against Klebsiella pneumoniae BAA-1706 after 20 hrs by broth microdilution method; type: functional; conditions: BAA-1706, 20 h
[28] = system: Staphylococcus aureus; test: Potency index, ratio of vancomycin MIC to test compound MIC for Staphylococcus aureus VRS11a clinical isolate; type: functional
[29] = system: Rattus norvegicus; test: Oral bioavailability in Sprague-Dawley rat at 25 mg/kg administered via gavage measured over 24 hrs by LC-MS/MS analysis; type: ADME, organism-based; conditions: in vivo
[30] = system: Rattus norvegicus; test: Cmax in Sprague-Dawley rat at 25 mg/kg administered via oral gavage measured over 24 hrs by LC-MS/MS analysis; type: ADME, organism-based; set-up: dose 25 mg/kg, route oral; conditions: in vivo
[31] = system: Staphylococcus aureus; test: Bactericidal activity against methicillin-resistant Staphylococcus aureus USA300 at 4 times MIC after 12 hrs by time kill assay; type: functional
[32] = system: Staphylococcus aureus; test: Antibacterial activity against Staphylococcus aureus NRS119 clinical isolate after 20 hrs by broth microdilution method; type: functional; conditions: NRS119, 20 h
[33] = system: Staphylococcus aureus; test: Antibacterial activity against Staphylococcus aureus NRS119 clinical isolate after 18 to 20 hrs by broth microdilution method; type: functional
[34] = system: Staphylococcus aureus; test: Antibacterial activity against Staphylococcus aureus RN4220 NRS107 clinical isolate after 18 to 20 hrs by broth microdilution method; type: functional

Structure (SMILES): Cc1nc(-c2ccc(-c3ccccc3)cc2)sc1-c1nnc(NN)o1
- solubility [1]: 77 µM (≈ 26.9 µg/mL)
- MIC [2]: 3.12 µg/mL (≈ 8.93 µM)

Structure (SMILES): CCN(CC)c1nnc(-c2sc(-c3ccc(-c4ccccc4)cc3)nc2C)o1
- MIC [2]: > 25 µg/mL

Structure (SMILES): CCCCNc1nnc(-c2sc(-c3ccc(-c4ccccc4)cc3)nc2C)o1
- MIC [2]: > 25 µg/mL

Structure (SMILES): Cc1nc(-c2ccc(-c3ccccc3)cc2)sc1-c1nnc(N2CC(O)C2)o1
- solubility [1]: 150 µM (≈ 58.6 µg/mL)
- MIC [2]: 3.12 µg/mL (≈ 7.99 µM)

Structure (SMILES): Cc1nc(-c2ccc(-c3ccccc3)cc2)sc1-c1nnc(N(C)C)o1
- MIC [2]: > 25 µg/mL

Structure (SMILES): Cc1nc(-c2ccc(-c3ccccc3)cc2)sc1-c1nnc(NC(=N)c2ccccn2)o1
- MIC [2]: > 25 µg/mL

Structure (SMILES): Cc1nc(-c2ccc(-c3ccccc3)cc2)sc1-c1nnc(NC2CCCC2)o1
- MIC [2]: > 25 µg/mL

Structure (SMILES): Cc1nc(-c2ccc(-c3ccccc3)cc2)sc1-c1nnc(NC(=N)N2CCCCC2)o1
- MIC [2]: > 25 µg/mL

Structure (SMILES): Cc1nc(-c2ccc(-c3ccccc3)cc2)sc1-c1nnc(NC(=N)c2cccnc2)o1
- MIC [2]: > 25 µg/mL

Structure (SMILES): Cc1nc(-c2ccc(-c3ccccc3)cc2)sc1-c1nnc(NC(=N)N2CCCC2)o1
- MIC [2]: 12.5 µg/mL (≈ 29 µM)

Structure (SMILES): Cc1nc(-c2ccc(-c3ccccc3)cc2)sc1-c1nnc(NC(C)C)o1
- MIC [2]: > 25 µg/mL

Structure (SMILES): Cc1nc(-c2ccc(-c3ccccc3)cc2)sc1-c1nnc(N2CCC2)o1
- MIC [2]: > 25 µg/mL

Structure (SMILES): Cc1nc(-c2ccc(-c3ccccc3)cc2)sc1-c1nnc(NC2CCCCC2)o1
- MIC [2]: > 25 µg/mL

Structure (SMILES): CCNc1nnc(-c2sc(-c3ccc(-c4ccccc4)cc3)nc2C)o1
- MIC [2]: > 25 µg/mL

Structure (SMILES): CNC(=N)Nc1nnc(-c2sc(-c3ccc(-c4ccccc4)cc3)nc2C)o1
- solubility [1]: 89 µM (≈ 34.8 µg/mL)
- MIC [2]: 1.56 µg/mL (≈ 4 µM)

Structure (SMILES): CNc1nnc(-c2sc(-c3ccc(-c4ccccc4)cc3)nc2C)o1
- MIC [2]: 12.5 µg/mL (≈ 35.9 µM)

Structure (SMILES): CO[C@H]1/C=C/O[C@@]2(C)Oc3c(C)c(O)c4c(O)c(c(/C=N/N5CCN(C)CC5)c(O)c4c3C2=O)NC(=O)/C(C)=C\C=C\[C@H](C)[C@H](O)[C@@H](C)[C@@H](O)[C@@H](C)[C@H](OC(C)=O)[C@@H]1C [RIFAMPIN]
- MIC [3]: 1.6 µg/mL (≈ 1.94 µM)
- MIC [4]: 0.006 µg/mL (≈ 0.00729 µM)

Structure (SMILES): Cc1nc(-c2ccc(-c3ccccc3)cc2)sc1-c1nnc(NC(=N)N2CCOCC2)o1
- Activity [5]: Active
- Activity [6]: Non-Toxic
- MIC [2]: 1.56 µg/mL (≈ 3.49 µM)

Structure (SMILES): Cc1nc(-c2ccc(-c3ccccc3)cc2)sc1-c1nnc(NC(=N)N2CCN(C)CC2)o1
- IC50 [7]: 45.7 µg/mL (≈ 99.4 µM)
- MIC [8]: 16 µg/mL (≈ 34.8 µM)
- Ratio [9]: 6
- half-life [10]: 2.04 h
- MIC [11]: > 64 µg/mL
- MIC [12]: 16 µg/mL (≈ 34.8 µM)
- MIC [13]: > 64 µg/mL
- MIC [14]: 8 µg/mL (≈ 17.4 µM)
- solubility [1]: 104 µM (≈ 47.8 µg/mL)
- AUC(0-t) at 24 h [15]: 83200 ng·h/mL
- MIC [16]: > 64 µg/mL
- IC50 [17]: 398 µg/mL (≈ 866 µM)
- Activity [18]: Active
- Activity [19]: Non-Toxic
- Activity [5]: Active
- MIC [20]: 16 µg/mL (≈ 34.8 µM)
- MIC [21]: > 64 µg/mL
- selectivity ratio [22]: > 400
- Tmax [23]: 1.7 h
- Ratio [24]: 30
- MIC [25]: 16 µg/mL (≈ 34.8 µM)
- MIC [2]: 1.17 µg/mL (≈ 2.55 µM)
- MIC [26]: > 64 µg/mL
- MIC [27]: > 64 µg/mL
- Ratio [28]: 30
- F [29]: 42.5%
- Cmax [30]: 6222.1 ng/mL
- Activity [31]: 3 deltalog10CFU/ml

Structure (SMILES): Cc1nc(-c2ccc(-c3ccccc3)cc2)sc1-c1nnc(N2CCN(C)CC2)o1
- solubility [1]: 45 µM (≈ 18.8 µg/mL)
- MIC [2]: 1.56 µg/mL (≈ 3.74 µM)

Structure (SMILES): CCCCc1ccc(-c2nc(C)c(/C(C)=N/NC(=N)N)s2)cc1
- F [29]: 0%

Structure (SMILES): Cc1nc(-c2ccc(-c3ccccc3)cc2)sc1-c1nnc(NC(=N)N)o1
- IC50 [7]: 45 µg/mL (≈ 119 µM)
- solubility [1]: 128 µM (≈ 48.2 µg/mL)
- IC50 [17]: > 1000 µg/mL
- MIC [2]: 1.56 µg/mL (≈ 4.14 µM)

Structure (SMILES): Cc1nc(-c2ccc(-c3ccccc3)cc2)sc1-c1nnc(N2CCCC2)o1
- MIC [2]: > 25 µg/mL

Structure (SMILES): CN[C@H](CC(C)C)C(=O)N[C@H]1C(=O)N[C@@H](CC(N)=O)C(=O)N[C@H]2C(=O)N[C@H]3C(=O)N[C@H](C(=O)N[C@H](C(=O)O)c4cc(O)cc(O)c4-c4cc3ccc4O)[C@H](O)c3ccc(c(Cl)c3)Oc3cc2cc(c3O[C@@H]2O[C@H](CO)[C@@H](O)[C@H](O)[C@H]2O[C@H]2C[C@](C)(N)[C@H](O)[C@H](C)O2)Oc2ccc(cc2Cl)[C@H]1O [VANCOMYCIN]
- MIC [12]: > 512 µg/mL
- MIC [20]: > 512 µg/mL
- MIC [2]: 1.56 µg/mL (≈ 1.08 µM)
- MIC [26]: > 64 µg/mL

Structure (SMILES): Cc1nc(-c2ccc(-c3ccccc3)cc2)sc1-c1ccnc(NC(=N)N)n1
- solubility [1]: 2.2 µM (≈ 0.85 µg/mL)

Structure (SMILES): CC(=O)NC[C@H]1CN(c2ccc(N3CCOCC3)c(F)c2)C(=O)O1 [LINEZOLID]
- MIC [32]: > 128 µg/mL
- MIC [13]: > 64 µg/mL
- MIC [33]: > 128 µg/mL
- MIC [16]: > 64 µg/mL
- MIC [21]: > 64 µg/mL
- MIC [26]: 1 µg/mL (≈ 2.96 µM)
- MIC [27]: > 64 µg/mL

Structure (SMILES): C/C(=C\C(=O)OCCCCCCCCC(=O)O)C[C@@H]1OC[C@H](C[C@@H]2O[C@H]2[C@@H](C)[C@H](C)O)[C@@H](O)[C@H]1O [MUPIROCIN]
- MIC [34]: 1020 µg/mL (≈ 2050 µM)

Structure (SMILES): CCCNc1nnc(-c2sc(-c3ccc(-c4ccccc4)cc3)nc2C)o1
- MIC [2]: > 25 µg/mL

Structure (SMILES): C/C(=N\NC(=N)N)c1sc(-c2ccc(-c3ccccc3)cc2)nc1C
- solubility [1]: 2.7 µM (≈ 0.944 µg/mL)
- MIC [2]: 2.75 µg/mL (≈ 7.87 µM)

Structure (SMILES): Cc1nc(-c2ccc(-c3ccccc3)cc2)sc1-c1nnc(NC(=N)c2ccncc2)o1
- MIC [2]: > 25 µg/mL

Structure (SMILES): Cc1nc(-c2ccc(-c3ccccc3)cc2)sc1-c1nnc(N2CCOCC2)o1
- MIC [2]: 12.5 µg/mL (≈ 30.9 µM)
